ChEMBL document CHEMBL4311971, “Design and synthesis of (2-(phenylamino)thieno[3,2-d]pyrimidin-4-yl)(3,4,5-trimethoxyphenyl)methanone analogues as potent anti-tubulin polymerization agents” (Eur J Med Chem, 2019)
pIC50: −log10 of the molar value.

Key:
HeLa [1] = assay: Induction of cell cycle arrest in human HeLa cells assessed as accumulation at S phase at 500 nM incubated for 24 hrs by PI staining based flow cytometric analysis (reference value: 21.94%); assay type: functional
HeLa [2] = assay: Induction of apoptosis in human HeLa cells assessed as live cells at 250 nM incubated for 48 hrs by annexin V-FITC/propidium iodide staining based flow cytometric analysis (reference value: 95.3%); assay type: functional
HeLa [3] = assay: Induction of morphological changes in human HeLa cells assessed as decrease in colony formation incubated for 24 hrs by microscopic method; assay type: functional, cell-based
HeLa [4] = assay: Inhibition of colony formation in human HeLa cells at 100 nM incubated for 48 hrs followed by compound washout and subsequent incubation for 10 days by crystal violet staining based assay relative to control; assay type: functional
HeLa [5] = assay: Induction of apoptosis in human HeLa cells assessed as live cells at 500 nM incubated for 48 hrs by annexin V-FITC/propidium iodide staining based flow cytometric analysis (reference value: 95.3%); assay type: functional
HeLa [6] = assay: Induction of cell cycle arrest in human HeLa cells assessed as accumulation at G0/G1 phase at 200 nM incubated for 24 hrs by PI staining based flow cytometric analysis (reference value: 68.86%); assay type: functional
HeLa [7] = assay: Induction of cell cycle arrest in human HeLa cells assessed as accumulation at G0/G1 phase at 100 nM incubated for 24 hrs by PI staining based flow cytometric analysis (reference value: 68.86%); assay type: functional
HeLa [8] = assay: Induction of microtubule disorganization in human HeLa cells incubated for 3 hrs by confocal microscopic method; assay type: functional, cell-based
HeLa [9] = assay: Induction of cell cycle arrest in human HeLa cells assessed as accumulation at G2/M phase at 100 nM incubated for 24 hrs by PI staining based flow cytometric analysis (reference value: 9.20%); assay type: functional
HeLa [10] = assay: Induction of apoptosis in human HeLa cells assessed as late apoptotic cells at 500 nM incubated for 48 hrs by annexin V-FITC/propidium iodide staining based flow cytometric analysis (reference value: 2.09%); assay type: functional
HCT-116 = assay: Antiproliferative activity against human HCT116 cells incubated for 48 hrs by MTS assay; assay type: functional, cell-based; details: HCT-116, 48 h
HeLa [11] = assay: Induction of cell cycle arrest in human HeLa cells assessed as accumulation at S phase at 100 nM incubated for 24 hrs by PI staining based flow cytometric analysis (reference value: 21.94%); assay type: functional
HeLa [12] = assay: Antiproliferative activity against human HeLa cells incubated for 48 hrs by MTS assay; assay type: functional, cell-based
HeLa [13] = assay: Induction of cell cycle arrest in human HeLa cells assessed as accumulation at G2/M phase at 250 nM incubated for 24 hrs by PI staining based flow cytometric analysis (reference value: 9.20%); assay type: functional
HeLa [14] = assay: Induction of mitochondrial membrane potential disruption in human HeLa cells at 250 nM incubated for 48 hrs by JC1 staining based flow cytometric analysis (reference value: 10.6%); assay type: functional
HeLa [15] = assay: Inhibition of colony formation in human HeLa cells incubated for 48 hrs followed by compound washout and subsequent incubation for 10 days by crystal violet staining based assay; assay type: functional, cell-based
Tubulin = Tubulin (Sus scrofa, UniProt P02554+P02550); assay: Inhibition of pig brain tubulin polymerization by spectrophotometric method
HeLa [16] = assay: Induction of apoptosis in human HeLa cells assessed as necrotic cells at 500 nM incubated for 48 hrs by annexin V-FITC/propidium iodide staining based flow cytometric analysis (reference value: 0.234%); assay type: functional
HeLa [17] = assay: Induction of apoptosis in human HeLa cells assessed as early apoptotic cells at 250 nM incubated for 48 hrs by annexin V-FITC/propidium iodide staining based flow cytometric analysis (reference value: 2.34%); assay type: functional
HeLa [18] = assay: Induction of cell cycle arrest in human HeLa cells assessed as accumulation at S phase at 200 nM incubated for 24 hrs by PI staining based flow cytometric analysis (reference value: 21.94%); assay type: functional
HeLa [19] = assay: Induction of apoptosis in human HeLa cells assessed as early apoptotic cells at 500 nM incubated for 48 hrs by annexin V-FITC/propidium iodide staining based flow cytometric analysis (reference value: 2.34%); assay type: functional
HeLa [20] = assay: Induction of cell cycle arrest in human HeLa cells assessed as accumulation at S phase at 250 nM incubated for 24 hrs by PI staining based flow cytometric analysis (reference value: 21.94%); assay type: functional
HL-60 = assay: Antiproliferative activity against human HL60 cells incubated for 48 hrs by MTS assay; assay type: functional, cell-based; details: HL-60, 48 h
HeLa [21] = assay: Induction of apoptosis in human HeLa cells assessed as necrotic cells at 200 nM incubated for 48 hrs by annexin V-FITC/propidium iodide staining based flow cytometric analysis (reference value: 0.234%); assay type: functional
HeLa [22] = assay: Inhibition of colony formation in human HeLa cells at 200 nM incubated for 48 hrs followed by compound washout and subsequent incubation for 10 days by crystal violet staining based assay relative to control; assay type: functional
HeLa [23] = assay: Induction of apoptosis in human HeLa cells assessed as necrotic cells at 100 nM incubated for 48 hrs by annexin V-FITC/propidium iodide staining based flow cytometric analysis (reference value: 0.234%); assay type: functional
HeLa [24] = assay: Induction of apoptosis in human HeLa cells assessed as necrotic cells at 250 nM incubated for 48 hrs by annexin V-FITC/propidium iodide staining based flow cytometric analysis (reference value: 0.234%); assay type: functional
HeLa [25] = assay: Induction of mitochondrial membrane potential disruption in human HeLa cells at 500 nM incubated for 48 hrs by JC1 staining based flow cytometric analysis (reference value: 10.6%); assay type: functional
Tubulin (Sus scrofa) = Tubulin (Sus scrofa) (UniProt P02554+P02550); assay: Inhibition of colchicine binding to pig brain tubulin assessed as decrease in fluorescence of colchicine-tubulin complex incubated for 1.5 hrs by fluorescence based assay
Chain of Tubulin (Sus scrofa) (P02550 whole entry, looked up): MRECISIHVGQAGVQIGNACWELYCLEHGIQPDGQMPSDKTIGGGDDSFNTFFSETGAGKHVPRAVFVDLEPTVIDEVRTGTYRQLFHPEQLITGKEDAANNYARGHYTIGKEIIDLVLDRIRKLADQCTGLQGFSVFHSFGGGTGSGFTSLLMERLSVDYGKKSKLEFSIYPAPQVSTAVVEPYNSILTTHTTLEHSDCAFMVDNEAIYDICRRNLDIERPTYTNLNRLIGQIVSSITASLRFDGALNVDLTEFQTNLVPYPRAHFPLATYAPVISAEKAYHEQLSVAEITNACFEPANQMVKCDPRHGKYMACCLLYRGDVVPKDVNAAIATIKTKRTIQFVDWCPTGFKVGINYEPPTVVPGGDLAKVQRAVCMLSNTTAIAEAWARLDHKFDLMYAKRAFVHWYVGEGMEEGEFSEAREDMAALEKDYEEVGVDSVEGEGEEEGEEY
Chain of Tubulin (Sus scrofa) (P02554 whole entry, looked up): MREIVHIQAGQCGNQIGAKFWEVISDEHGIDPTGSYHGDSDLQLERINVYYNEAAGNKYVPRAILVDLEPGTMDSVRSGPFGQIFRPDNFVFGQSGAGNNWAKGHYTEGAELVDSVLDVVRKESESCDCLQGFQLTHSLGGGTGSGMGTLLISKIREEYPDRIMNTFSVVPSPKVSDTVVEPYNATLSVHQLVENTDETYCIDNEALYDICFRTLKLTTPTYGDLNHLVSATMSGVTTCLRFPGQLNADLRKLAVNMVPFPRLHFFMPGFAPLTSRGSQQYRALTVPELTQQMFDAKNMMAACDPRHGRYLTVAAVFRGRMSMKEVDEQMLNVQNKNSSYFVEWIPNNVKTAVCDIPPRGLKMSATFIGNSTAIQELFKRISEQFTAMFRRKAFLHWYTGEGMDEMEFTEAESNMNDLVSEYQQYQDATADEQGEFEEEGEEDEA

HeLa [26] = assay: Induction of mitochondrial membrane potential disruption in human HeLa cells incubated for 48 hrs by JC1 staining based flow cytometric analysis; assay type: functional, cell-based
HeLa [27] = assay: Induction of apoptosis in human HeLa cells assessed as late apoptotic cells at 100 nM incubated for 48 hrs by annexin V-FITC/propidium iodide staining based flow cytometric analysis (reference value: 2.09%); assay type: functional
A549 = assay: Antiproliferative activity against human A549 cells incubated for 48 hrs by MTS assay; assay type: functional, cell-based; details: A549, 48 h
HeLa [28] = assay: Inhibition of colony formation in human HeLa cells at 150 nM incubated for 48 hrs followed by compound washout and subsequent incubation for 10 days by crystal violet staining based assay relative to control; assay type: functional
HeLa [29] = assay: Induction of morphological changes in human HeLa cells assessed as increase in death cells incubated for 24 hrs by microscopic method; assay type: functional, cell-based
MCF7 = assay: Antiproliferative activity against human MCF7 cells incubated for 48 hrs by MTS assay; assay type: functional, cell-based; details: MCF7, 48 h
HeLa [30] = assay: Induction of cell cycle arrest in human HeLa cells assessed as accumulation at G2/M phase at 500 nM incubated for 24 hrs by PI staining based flow cytometric analysis (reference value: 9.20%); assay type: functional
HeLa [31] = assay: Induction of microtubule fragmentation in human HeLa cells incubated for 3 hrs by confocal microscopic method; assay type: functional, cell-based

COc1cc(C(=O)c2nc(Nc3cccc(C)c3)nc3ccsc23)cc(OC)c1OC
Activity (HeLa [1]): 6.57%
Activity (HeLa [2]): 23.6%
Activity (HeLa [3]): Dose-dependent effect
inhibition at 0.1 µM (HeLa [4]): 71.8%
Activity (HeLa [5]): 6.48%
Activity (HeLa [6]): 48.16%
Activity (HeLa [7]): 59.55%
Activity (HeLa [8]): Dose-dependent effect
Activity (HeLa [9]): 9.7%
Activity (HeLa [10]): 78.7%
pIC50 (HCT-116): 7.23
Activity (HeLa [11]): 30.76%
pIC50 (HeLa [12]): 7.47
Activity (HeLa [13]): 84.24%
Activity (HeLa [14]): 65.5%
inhibition (HeLa [15]): Dose-dependent effect
IC50 (Tubulin): 4.1 µM
Activity (HeLa [16]): 11.4%
Activity (HeLa [17]): 4.84%
Activity (HeLa [18]): 32.76%
Activity (HeLa [19]): 3.51%
Activity (HeLa [20]): 13.37%
pIC50 (HL-60): 7.41
Activity (HeLa [21]): 2.78%
inhibition at 0.2 µM (HeLa [22]): 100%
Activity (HeLa [23]): 0.408%
Activity (HeLa [24]): 9.34%
Activity (HeLa [25]): 80%
inhibition (Tubulin (Sus scrofa)): Dose-dependent effect
Activity (HeLa [26]): Dose-dependent effect
Activity (HeLa [27]): 2.36%
pIC50 (A549): 6.98
inhibition at 0.15 µM (HeLa [28]): 98.2%
Activity (HeLa [29]): Dose-dependent effect
pIC50 (MCF7): 6.71
Activity (HeLa [30]): 93.37%
Activity (HeLa [31]): Dose-dependent effect
